# Marks after values point to notes of the source that are not given here.
# Experiments:
# [1] = tested on: high fat-induced NAFLD/NASH mice; test: High fat-induced NAFLD/NASH mice (Experimental Example 5); type: in vivo, C57BL/6J male mice
# Excerpt: Build of NAFLD/NASH (non-alcoholic fatty liver disease/nonalcoholic steatohepatitis) mouse models: six-week-old C57BL/6J male mice were fed with high-fat feed, and were weighed each week to record the body weights of the mice; and after high-fat feeding for 8 weeks, the mice were weighed to determine whether the modeling is successful.
# According to the body weight values (40 g was generally considered as a screening critical point), the successfully-modeled mice were divided into a blank control group, a model control group and the compound 2-1 (1 mg/kg) group, wherein the average body weights of all groups were consistent, without any significant difference. The mice were administered once every day (QD) (8 # intragastric syringe) for 3 weeks.
# 24 hrs after the last administration, blood was sampled from the inner canthus; the sampled blood stood at room temperature for 1 to 2 hrs, and was centrifuged at 4,000 rpm for 15 mins, and the serum was collected; the mice were euthanized thereafter, and a large liver lobe and a small liver lobe were cut off and put into 10% neutral formalin, and the remainings were stored in a refrigerator at −80° C. For the detailed administration method, administration dosage and administration route, see the table below.
# Route, dosage and regimen of administration in experiment for influence of compounds of the present invention on high fat-induced NAFLD/NASH mice
# 2.1 Experimental Observation Index • 1) Body weight: Weighing was performed once every week from the beginning of modeling. Weighing was performed once every week after administration. • 2) Analysis of morphological and pathological changes of livers: Liver tissues were separated, collected and photographed. The livers were weighed, and ratios of liver weight/body weight were calculated. The tissue was sliced and stained by H&E (NAFLD score, NAS). • 3) Assay of biochemical indexes of livers: TG in the livers was extracted according to the manual of a tissue cell triglyceride assay kit (purchased from Applygen Technologies Inc. E1013), and assayed. • 4) Assay of biochemical indexes of serums: LDL in serums was assayed with a full-automatic biochemical analyzer (Hitachi 7180, model: X594).
# Data were represented by mean±S.E.M., and one-way analysis of variance (ANOVA) followed LSD or independent-sample T test were performed on the statistical data with statistical software SPSS 16.0. Statistical differences were tested, and p<0.05 was defined as a significant difference.
# [2] = Liver microsome metabolism stability, rat liver microsome; type: in vitro ADME, SD rat; conditions: 0.5 mg protein/mL, test sample 1 μM, β-NADPH
# Method: Test samples: the homemade compounds 1, 2, 4 and 5 of the present invention (for their chemical names and preparation methods, see the preparation example for each compound).
# a mixed liver microsomes of SD rat and human both purchased from XenoTech, with batch Nos.: 1410271 (SD rat) and 1410013 (human) respectively, wherein the microsomal protein concentrations both were 20 mg mL^−1;
# experimental promoter β-NADPH purchased from Roche (batch No.: 524F0231); and a phosphate buffer solution (pH 7.4) made in the lab.
# An appropriate amount of the test sample powder was weighed accurately, and dissolved in an appropriate amount of dimethyl sulfoxide (DMSO) to a concentration of 1 mM; and the solution was then diluted by 20 times with methanol to yield a 50 μM working solution.
# (1) According to the proportions in table 3 “Composition of the incubation system for liver microsome metabolism stability experiment” above, for each compound, 6 mL of PBS (100 mM), 0.6 mL of MgCl2 solution (20 mM) and 3.66 mL of H2O were made into a mixed solution 1 for the incubation system (not containing the microsomes, the test sample and β-NADPH).
# (2) Liver microsomes (20 mg protein/mL) were taken from a refrigerator (−80° C.), and were placed on a thermostatic water bath oscillator (37° C.) and pre-incubated for 3 mins.
# (3) For each compound, 1.88 mL of the mixed solution 1 for the incubation system was added with 55 μL of microsomes to obtain a mixed solution 2 for the incubation system (not containing the test sample and β-NADPH).
# (4) Sample group (containing the microsomes and D-NADPH): 616 μL of mixed solution 2 for the incubation system was added with 14 μL of the test sample working solution (with a concentration of 50 μM), and with 70 μL of R-NADPH working solution (10 mM). The resulted solution was well mixed, and the resulted solution was then duplicated. The time points of sampling were at 0 min, 5th min, 10th min, 20th min, 30th min and 60th min.
# (5) Control group (containing the microsomes, and water instead of D-NADPH): 264 μL of mixed solution 2 for the incubation system was added with 6 μL of the test sample working solution (50 μM), and with 30 μL of water. The resulted solution was well mixed, and the resulted solution was then duplicated. The time points of sampling were at 0 min and 60th min.
# (6) 50 μL of sample was taken from an incubating sample tube at each predetermined time point, added to a terminating sample tube (containing 300 μL of cold terminator), and vortexed; and the reaction was terminated.
# (7) after 10 mins of vortexing, the solution was centrifuged for 5 mins (12,000 rpm).
# (8) 100 μL of supernatant was taken and added with 100 μL of water, and the mixture solution was thoroughly vortexed; and the solution was then analyzed by LC-MS/MS.
# Percentages of residual contents were calculated according to the following formula.
structure (smiles),measurement,setting,value
"O=C(O)c1ccc2nc(N3C[C@@H]4C[C@H]3C[C@H]4OCc3c(-c4c(Cl)cccc4Cl)noc3C3CC3)sc2c1 [Compound 2-1, 2-((1S, 4S, 5R)-5-((5-cyclopropyl-3-(2,6-dichlorophenyl)isoxazol-4-yl)methoxy)-2-azabicyclo[2.2.1]heptan-2-yl)benzo[d]thiazole-6-carboxylic acid]",Liver Weight/Body Weight,"[1]; 1 mg/kg p.o. QD for 3 weeks, increased or decreased ratio of the experimental group to the model group",−9%*
same,NAFLD Activity Score,"[1]; H&E liver slices, 1 mg/kg p.o. QD for 3 weeks, model group 3, p<0.001",1
same,effect on the NAFLD symptom of the mice,[1]; at the administration dosage (1 mg/kg),good improving effect
same,TG,"[1]; liver TG, 1 mg/kg p.o. QD for 3 weeks, increased or decreased ratio of the experimental group to the model group",−53%*
same,LDL,"[1]; serum, 1 mg/kg p.o. QD for 3 weeks, model group 0.31, p<0.01",0.21
same,Residual content (%) after 60 minutes of incubation,[2],77%
